In patent US10344019B2 (priority 2010, dated 2019):

Legend:
Assay type in all cases: cell-based
[1] = system: HCV 1a RLuc cells (dicistronic genotype 1a H77 replicon, RLuc reporter); test: microbe, parasite or virus in culture; conditions: Hepatitis C virus, genotype 1a H77 RLuc replicon; read-out: 1a
Outline: (§1)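 Replicons used: genotype 1b Con1, 1a H77, 2a JFH-1, and a 2a JFH-1 chimera with J6-strain NS5A (M31 present), all dicistronic.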

[2] = system: HCV 1b RLuc cells (dicistronic genotype 1b Con1 replicon, RLuc reporter); test: microbe, parasite or virus in culture; conditions: Hepatitis C virus, read-out: 1b (nM)
Outline: as §1

[3] = system: HCV 2b Rluc cells (NS5A chimeric genotype 2a JFH-1 replicon with genotype 2b MD2b-1 NS5A gene, M31 present); test: microbe, parasite or virus in culture; conditions: Hepatitis C virus, read-out: 2b
Outline: (§2)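 Replicon cells stably carrying the listed RLuc-encoding dicistronic replicons were seeded and treated with DMSO serial dilutions of compound (10 mM stocks) diluted into culture medium. After 72 h, cells were lysed and Renilla luciferase activity measured. EC50 was derived by non-linear regression.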

[4] = system: HCV 2a JFH-1 Rluc cells (dicistronic genotype 2a JFH-1 replicon, RLuc reporter); test: microbe, parasite or virus in culture; conditions: Hepatitis C virus, genotype 2a JFH-1 RLuc replicon; read-out: 2a JFH
Outline: as §1

[5] = system: HCV 3a RLuc cells (NS5A chimeric genotype 1b Con1 replicon with consensus genotype 3a NS5A gene); test: microbe, parasite or virus in culture; conditions: Hepatitis C virus, read-out: 3a, genotype 3a NS5A chimeric replicon
Outline: as §2

[6] = system: HCV 2a Rluc cells (NS5A chimeric genotype 2a JFH-1 replicon with genotype 2a J6 strain NS5A gene, M31 present); test: HCV replicon reporter assay, genotype 2a J6 (M31 present); conditions: Hepatitis C virus, read-out: 2a J6
Outline: as §1

[7] = system: Q30R in genotype 1a NS5A, 1a Rluc replicon transfected into Huh-7 cured-51 cells; test: HCV replicon assay, resistance mutant 1a Q30R; conditions: Hepatitis C virus, Huh-7, read-out: 1a Q30R
Procedure: Evaluation of cell-based anti-HCV activity: Antiviral potency (EC50) was determined using a Renilla luciferase (RLuc)-based HCV replicon reporter assay. To perform the assay for genotype 1 and 2a JFH-1, HCV 1b RLuc cells (harboring a dicistronic genotype 1b Con1 replicon that encodes a RLuc reporter), or HCV 1a RLuc cells (harboring a dicistronic genotype 1a H77 replicon that encodes a RLuc reporter), or HCV 2a JFH-1 Rluc cells (harboring a dicistronic genotype 2a JFH-1 replicon that encodes a RLuc reporter) were dispensed into 384-well plates. To perform the assay for genotype 2a (with M31 present) or 2b, HCV 2a Rluc or 2b Rluc cells (both with M31 present) harboring a dicistronic NS5A chimeric genotype 2a JFH-1 replicon that encodes a RLuc reporter and either genotype 2a J6 strain NS5A gene or genotype 2b MD2b-1 NS5A gene (based on Los Alamos HCV database isolates, both with M31 present) respectively, were dispensed into 384-well plates. To perform the assay for genotype 3 and 4, HCV 3a RLuc or 4a Rluc cells harboring a dicistronic NS5A chimeric genotype 1b Con1 replicon that encodes a RLuc reporter and either a consensus genotype 3a NS5A gene or genotype 4a NS5A gene (based on Los Alamos HCV database isolates) respectively, were dispensed into 384-well plates. Compounds were re-suspended in DMSO at a concentration of 10 mM and serially diluted in DMSO either manually or using an automated pipeting instrument. Serially diluted compounds were mixed with cell culture media and added to the seeded cells. […] 72 hours later, cells were lysed and Renilla luciferase activity quantified as recommended by the manufacturer (Promega-Madison, Wis.). Non-linear regression was performed to calculate EC50 values.
To determine the antiviral potency (EC50) against resistance mutants, resistance mutations, including M28T, Q30R, Q30H, L31M, and Y93C in genotype 1a NS5A and Y93H in genotype 1b NS5A, were introduced individually into either 1a Rluc or 1b Rluc replicons described above by site directed mutagenesis. Replicon RNA of each resistant mutant was transfected into Huh-7 cured-51 cells and antiviral potency was determined on these transfected cells as described above.

Row | SMILES | EC50 [1] | EC50 [2] | EC50 [3] | EC50 [4] | EC50 [5] | EC50 [6] | EC50 [7]
1 | COC(=O)N[C@H](C(=O)N1[C@@H](C)CC[C@H]1c1ncc(-c2cc3c4c(c2)OCc2cc(-c5cnc([C@@H]6C[C@H](C)CN6C(=O)[C@H](NC(=O)OC)c6ccccc6)[nH]5)cc(c2-4)OC3)[nH]1)C(C)C [Example 586] | 0.001 to 0.999 nM | 0.011 nM | 0.001 to 0.999 nM | 0.001 to 0.999 nM | 0.001 to 0.99 nM | 0.001 to 0.999 nM | 0.001 to 0.999 nM
2 | COC[C@H]1C[C@@H](c2nc3ccc4cc5c(cc4c3[nH]2)OCc2cc(-c3cnc([C@@H]4CC[C@H](C)N4C(=O)[C@@H](NC(=O)OC)C(C)C)[nH]3)ccc2-5)N(C(=O)[C@@H](NC(=O)OC)[C@@H](C)OC)C1 [Example 615] | 0.001 to 0.999 nM | 0.019 nM | 0.001 to 0.999 nM | 0.001 to 0.999 nM | 0.001 to 0.99 nM | 0.001 to 0.999 nM | 0.001 to 0.999 nM
3 | COC(=O)N[C@H](C(=O)N1[C@@H](C)CC[C@H]1c1ncc(-c2cc3c4c(c2)OCc2cc(-c5cnc([C@@H]6CC[C@H](C)N6C(=O)[C@@H](NC(=O)OC)[C@@H](C)OC)[nH]5)cc(c2-4)OC3)[nH]1)[C@@H](C)OC [Example 616] | 0.001 to 0.999 nM | 0.018 nM | 0.001 to 0.999 nM | 0.001 to 0.999 nM | 0.001 to 0.99 nM | 0.001 to 0.999 nM | 0.001 to 0.999 nM
4 | CC[C@H](C)[C@H](NC(=O)OC)C(=O)N1C[C@@H](COC)C[C@H]1c1nc2ccc3cc4c(cc3c2[nH]1)OCc1cc(-c2cnc([C@@H]3CC[C@H](C)N3C(=O)[C@@H](NC(=O)OC)[C@@H](C)CC)[nH]2)ccc1-4 [Example 597] | 0.001 to 0.999 nM | 0.005 nM | 0.001 to 0.999 nM | 0.001 to 0.999 nM | 0.001 to 0.99 nM | 0.001 to 0.999 nM | 0.001 to 0.999 nM
5 | CC[C@H](C)[C@H](NC(=O)OC)C(=O)N1C[C@@H](C)C[C@H]1c1ncc(-c2ccc3c(c2)COc2cc4c(ccc5nc([C@@H]6C[C@H](COC)CN6C(=O)[C@H](NC(=O)OC)c6ccccc6)[nH]c54)cc2-3)[nH]1 [Example 639] | 0.001 to 0.999 nM | 0.011 nM | 0.001 to 0.999 nM | 0.001 to 0.999 nM | 0.001 to 0.99 nM | 0.001 to 0.999 nM | 0.001 to 0.999 nM
6 | COC[C@H]1C[C@@H](c2ncc(-c3ccc4c(c3)COc3cc5c(ccc6nc([C@@H]7CCCN7C(=O)[C@H](NC(=O)OC)c7ccccc7)[nH]c65)cc3-4)[nH]2)N(C(=O)[C@@H](NC(=O)OC)[C@@H](C)OC)C1 [Example 626] | 0.001 to 0.999 nM | 0.03 nM | 0.001 to 0.999 nM | 0.001 to 0.999 nM | 0.001 to 0.99 nM | 0.001 to 0.999 nM | 0.001 to 0.999 nM
7 | COC(=O)N[C@H](C(=O)N1[C@@H](C)CC[C@H]1c1ncc(-c2ccc3c(c2)COc2cc4c(ccc5nc([C@@H]6CCCN6C(=O)[C@H](NC(=O)OC)c6ccccc6)[nH]c54)cc2-3)[nH]1)C(C)C [Example 605] | 0.001 to 0.999 nM | 0.015 nM | 0.001 to 0.999 nM | 0.001 to 0.999 nM | 0.001 to 0.99 nM | 0.001 to 0.999 nM | 0.001 to 0.999 nM
8 | COC[C@H]1C[C@@H](c2ncc(-c3ccc4c(c3)COc3cc5c(ccc6nc([C@@H]7C[C@H]8CC8N7C(=O)[C@H](NC(=O)OC)c7ccccc7)[nH]c65)cc3-4)[nH]2)N(C(=O)[C@@H](NC(=O)OC)C(C)C)C1 (some centres unmarked) [Example 601] | 0.001 to 0.999 nM | 0.014 nM | 0.001 to 0.999 nM | 0.001 to 0.999 nM | 0.001 to 0.99 nM | 0.001 to 0.999 nM | 0.001 to 0.999 nM
9 | COC[C@H]1C[C@@H](c2ncc(-c3ccc4c(c3)COc3cc5c(ccc6nc([C@@H]7CC[C@H](C)N7C(=O)[C@@H](NC(=O)OC)C(C)C)[nH]c65)cc3-4)[nH]2)N(C(=O)[C@H](NC(=O)OC)c2ccccc2)C1 [Example 599] | 0.001 to 0.999 nM | – | 0.001 to 0.999 nM | 0.001 to 0.999 nM | 0.001 to 0.99 nM | 0.001 to 0.999 nM | 0.001 to 0.999 nM
10 | COC[C@H]1C[C@@H](c2ncc(-c3ccc4c(c3)COc3cc5c(cc3-4)CCc3nc([C@@H]4CCCN4C(=O)[C@@H](NC(=O)OC)C(C)C)[nH]c3-5)[nH]2)N(C(=O)[C@H](NC(=O)OC)c2ccccc2)C1 [Example 606] | 0.001 to 0.999 nM | 0.034 nM | 0.001 to 0.999 nM | 0.001 to 0.999 nM | 0.001 to 0.99 nM | 0.001 to 0.999 nM | 0.001 to 0.999 nM
11 | COC(=O)N[C@H](C(=O)N1[C@@H](C)CC[C@H]1c1ncc(-c2ccc3c(c2)COc2cc4c(ccc5nc([C@@H]6CCCN6C(=O)[C@@H](NC(=O)OC)[C@@H](C)OC)[nH]c54)cc2-3)[nH]1)C(C)C [Example 603] | 0.001 to 0.999 nM | – | 0.001 to 0.999 nM | 0.001 to 0.999 nM | 0.001 to 0.99 nM | 0.001 to 0.999 nM | 0.001 to 0.999 nM
12 | COC[C@H]1C[C@@H](c2ncc(-c3cc4c5c(c3)OCc3cc(-c6cnc([C@@H]7C[C@H](C)CN7C(=O)[C@H](NC(=O)OC)c7ccccc7)[nH]6)cc(c3-5)OC4)[nH]2)N(C(=O)[C@@H](NC(=O)OC)C(C)C)C1 [Example 611] | 0.001 to 0.999 nM | 0.013 nM | 0.001 to 0.999 nM | 0.001 to 0.999 nM | 0.001 to 0.99 nM | 0.001 to 0.999 nM | 0.001 to 0.999 nM
13 | COC(=O)N[C@H](C(=O)N1[C@@H](C)CC[C@H]1c1ncc(-c2ccc3c(c2)COc2cc4c(ccc5nc([C@@H]6C[C@H](C)CN6C(=O)[C@H](NC(=O)OC)c6ccccc6)[nH]c54)cc2-3)[nH]1)C(C)C [Example 617] | 0.001 to 0.999 nM | 0.005 nM | 0.001 to 0.999 nM | 0.001 to 0.999 nM | 0.001 to 0.99 nM | 0.001 to 0.999 nM | 0.001 to 0.999 nM
14 | COC[C@H]1C[C@@H](c2ncc(-c3ccc4c(c3)COc3cc5c(ccc6nc([C@@H]7C[C@H]8C[C@H]8N7C(=O)[C@@H](NC(=O)OC)C(C)C)[nH]c65)cc3-4)[nH]2)N(C(=O)[C@H](NC(=O)OC)c2ccccc2)C1 [Example 633] | 0.001 to 0.999 nM | 0.02 nM | 0.001 to 0.999 nM | 0.001 to 0.999 nM | 0.001 to 0.99 nM | 0.001 to 0.999 nM | 0.001 to 0.999 nM
15 | COC[C@H]1C[C@@H](c2nc3ccc4cc5c(cc4c3[nH]2)OCc2cc(-c3cnc([C@@H]4CCCN4C(O)[C@@H](NC(=O)OC)[C@@H](C)OC)[nH]3)ccc2-5)N(C(=O)[C@H](NC(=O)OC)c2ccccc2)C1 (some centres unmarked) [Example 618] | 0.001 to 0.999 nM | 0.02 nM | 0.001 to 0.999 nM | 0.001 to 0.999 nM | 0.001 to 0.99 nM | 0.001 to 0.999 nM | 0.001 to 0.999 nM
16 | COC[C@H]1C[C@@H](c2nc3ccc4cc5c(cc4c3[nH]2)OCc2cc(-c3cnc([C@@H]4CC[C@H](C)N4C(=O)[C@@H](NC(=O)OC)C(C)C)[nH]3)ccc2-5)N(C(=O)[C@H](NC(=O)OC)c2ccccc2)C1 [Example 594] | 0.001 to 0.999 nM | 0.013 nM | 0.001 to 0.999 nM | 0.001 to 0.999 nM | 0.001 to 0.99 nM | 0.001 to 0.999 nM | 0.001 to 0.999 nM
17 | COC(=O)N[C@H](C(=O)N1C[C@@H](C)C[C@H]1c1ncc(-c2ccc3c(c2)COc2cc4c(ccc5nc([C@@H]6CC[C@H](C)N6C(=O)[C@@H](NC(=O)OC)C(C)C)[nH]c54)cc2-3)[nH]1)C(C)C [Example 613] | 0.001 to 0.999 nM | – | 0.001 to 0.999 nM | 0.001 to 0.999 nM | 0.001 to 0.99 nM | 0.001 to 0.999 nM | 0.001 to 0.999 nM
18 | COC[C@H]1C[C@@H](c2nc3c([nH]2)-c2cc4c(cc2CC3)-c2ccc(-c3cnc([C@@H]5CC[C@H](C)N5C(=O)[C@@H](NC(=O)OC)C(C)C)[nH]3)cc2CO4)N(C(=O)[C@H](NC(=O)OC)c2ccccc2)C1 [Example 614] | 0.001 to 0.999 nM | – | 0.001 to 0.999 nM | 0.001 to 0.999 nM | 0.001 to 0.99 nM | 0.001 to 0.999 nM | 0.001 to 0.999 nM
